For data set [1], the system named is N9. Briefly: Inhibition of LPS-induced of phagocytosis in mouse N9 cells assessed as decrease in intracellular FAM-Abeta42 fluorescent intensity at 2.8 uM incubated for 24 hrs dosed 24 hrs after LPS stimulation by FAM-labeled fluorescent Abeta-42 peptide based fluorescence assay. The data set is classed as functional.
Data set [2] relates to N9. Briefly: Inhibition of LPS-induced of iNOS expression in mouse N9 cells at 2.8 uM incubated for 24 hrs dosed 24 hrs after LPS stimulation by Western blot. The data set is classed as functional. (Immunoblotting shows a protein as a band on a membrane.)
Data set [3] has as its system N9. Briefly: Inhibition of LPS-induced Caspase-1 expression in mouse N9 cells at 2.8 uM incubated for 24 hrs dosed 24 hrs after LPS stimulation by FLICA 660 Caspase-1 assay. In kind it is functional.
For data set [4], the system named is N9. Nature of the data set: Inhibition of LPS-induced of phagocytosis in mouse N9 cells assessed as decrease in FAM positive cell number at 2.8 uM incubated for 24 hrs dosed 24 hrs after LPS stimulation by FAM-labeled fluorescent Abeta-42 peptide based fluorescence assay. In kind it is functional.
Data set [5] deals with N9. Nature of the data set: Inhibition of LPS-induced of nitric oxide production in mouse N9 cells at 2.8 uM incubated for 24 hrs dosed 24 hrs after LPS stimulation by DAF-FM dye based fluorescence assay. In kind it is functional.
A short description of data set [6]: Inhibition of LPS-induced of IL-1beta expression in mouse N9 cells assessed as relative IL-1beta expression at 2.8 uM incubated for 24 hrs dosed 24 hrs after LPS stimulation by Quantitative PCR assay (reference value: 7 fold). In kind it is functional.
In data set [7] the test system is N9. Nature of the data set: Inhibition of LPS-induced of NLRP3 expression in mouse N9 cells at 2.8 uM incubated for 24 hrs dosed 24 hrs after LPS stimulation by Western blot. In kind it is functional.
Data set [8] is described as follows: Toxicity in mouse N9 cells assessed as effect on cell viability at 0.35 to 5.6 uM incubated for 24 hrs by MTT assay. In kind it is cell-based. Particulars: n9, 24 h, dose 0.35-5.6 µM.
Data set [9] can be described thus: Inhibition of LPS-induced of NLRP3 expression in mouse N9 cells assessed as NLRP3 expression level at 2.8 uM incubated for 24 hrs dosed 24 hrs after LPS stimulation by Quantitative PCR assay. In kind it is functional. Details: scale not given: the % may be the effect or the level left.
Data set [10] deals with N9. Nature of the data set: Inhibition of LPS-induced of NLRP3 expression in mouse N9 cells at 0.7 to 2.8 uM incubated for 24 hrs dosed 24 hrs after LPS stimulation by Quantitative PCR assay. In kind it is functional. The conditions noted are these: dose 0.7-2.8 µM, DDE = dose-dependent effect.
Data set [11] can be described thus: Inhibition of LPS-induced of NLRP3 expression in mouse N9 cells assessed as NLRP3 expression level at 0.7 uM incubated for 24 hrs dosed 24 hrs after LPS stimulation by Quantitative PCR assay. In kind it is functional. Also noted: scale not given: the % may be the effect or the level left.
Data set [12] in a line: Inhibition of LPS-induced of NLRP3 expression in mouse N9 cells assessed as NLRP3 expression level at 1.4 uM incubated for 24 hrs dosed 24 hrs after LPS stimulation by Quantitative PCR assay. The data set is classed as functional. Also noted: scale not given: the % may be the effect or the level left.
Data set [13] relates to Brain. Briefly: Suppression of microglia activation in C57BL/6 mouse brain assessed as maintenance of microglia morphology by measuring Iba1 positive cells in cerebral cortex area at 55 mg/kg, ip by immunofluorescence staining. In kind it is functional, organism-based.
Data set [14] deals with N9. Briefly: Inhibition of LPS-induced of TNF-alpha expression in mouse N9 cells at 2.8 uM incubated for 24 hrs dosed 24 hrs after LPS stimulation by ELISA. In kind it is functional. (In general: ELISA stands for enzyme-linked immunosorbent assay.)
Data set [15] relates to Brain. Briefly: Suppression of microglia activation in C57BL/6 mouse brain assessed as maintenance of microglia morphology by measuring Iba1 positive cell number in cerebral cortex positive cells in cerebral cortex area at 55 mg/kg, ip by immunofluorescence staining. In kind it is functional, organism-based.
The nature of data set [16]: Stabilization of microglia morphology in mouse N9 cells assessed as resting morphology level at 2.8 uM incubated for 24 hrs dosed 24 hrs after LPS stimulation by (reference value: 18%). The data set is classed as functional.
Data set [17] can be described thus: Inhibition of LPS-induced of IL-1beta expression in mouse N9 cells assessed as IL-1beta level at 2.8 uM incubated for 24 hrs dosed 24 hrs after LPS stimulation by ELISA (reference value: 100 pg/ml). In kind it is functional.

Activity calls are given as the source filed them. The calls are words filed in the database; no cut-off is given here.

Regarding `O=C1N(c2cncnc2)CCCN1S(=O)(=O)c1ccc(C(F)(F)F)cc1`, the inhibition entry in the data set on N9 [1], with N9 [2], in the data set on N9 [3], in the data set with N9 [4], in the data set on N9 [5] and in the data set with N9 [7] was “Active” in each case. The inhibition entry in the data set with N9 [14] was “Active”. In addition, the “fold change (FC)” value in data set [6] stood at 2. For the same compound, the Activity result is “Non-Toxic” in [8]; 100% in [9]; 370% in [11]; 220% in data set [12]; 65% in [16]; 70 pg/mL in [17]. Also, in the data set with N9 [10], the inhibition entry is “Dde”. Further, the outcome with Brain [13] and in the data set with Brain [15] was Active.

The values are drawn from ChEMBL document CHEMBL5154733, “Targeting NLRP3 signaling by a novel-designed sulfonylurea compound for inhibition of microglial inflammation” (Bioorg Med Chem, 2022).
